The NIST ThermoML archive (doi:10.1021/je400407z)

Conditions: Liquid, Closed cell (Static) method

FC(F)CC(F)(F)F [1,1,1,3,3-pentafluoropropane]
Conditions | vapor or sublimation pressure [kPa]
260.32 K | 28.52
272.13 K | 50.91
281.15 K | 75.62
293.31 K | 122.98
305.49 K | 192.78
313.62 K | 254.28
321.4 K | 324.38
333.49 K | 467.72
345.16 K | 642.26
351.47 K | 754.32
364 K | 1028.2
377.04 K | 1378.2

C=C(Cl)C(F)(F)F [2-chloro-3,3,3-trifluoro-1-propene]
Conditions | vapor or sublimation pressure [kPa]
263.25 K | 43.43
264.27 K | 45.2
265.23 K | 47.13
266.27 K | 48.88
267.16 K | 51.02
267.22 K | 50.69
268.2 K | 52.65
269.08 K | 55.2
270.04 K | 57.24
270.94 K | 59.24
270.95 K | 59.34
271.9 K | 61.45
273.85 K | 66.42
274.8 K | 68.69
275.39 K | 70.68
277.03 K | 75.24
277.96 K | 77.86
278.77 K | 80.2
278.99 K | 81.33
279.8 K | 83.72
280.56 K | 85.87
281.62 K | 89.39
282.8 K | 93.36
283.65 K | 95.62
284.51 K | 98.59
285.1 K | 100.84
286.15 K | 103.78
287.18 K | 107.59
288.59 K | 113.2
289.24 K | 115.72
290.31 K | 120.08
292.2 K | 128.29
294.48 K | 138.49
296.12 K | 146.32
297.41 K | 152.85
298.46 K | 158.2
299.53 K | 164.03
300.22 K | 167.73
301.38 K | 174.15
303.03 K | 183.59
304.22 K | 191.32
305.36 K | 198.32
306.37 K | 205.25
307.38 K | 212.61
308.45 K | 219.76
309.44 K | 226.88
311.14 K | 239.23
312.65 K | 250.71
313.32 K | 255.58
314.65 K | 265.41
315.41 K | 271.67
316.41 K | 279.99
317.54 K | 288.86
318.54 K | 296.49
319.54 K | 305.35
320.2 K | 312.84
321.51 K | 323.9
322.28 K | 330.9
322.39 K | 331.79
323.27 K | 340.55
324.4 K | 351.13
325.16 K | 359.71
326.17 K | 370.1
327.54 K | 383.61
328.16 K | 390.36
329.38 K | 402.72
330.27 K | 412.59
331.36 K | 424.58
332.28 K | 434.81
333.1 K | 444.59
333.37 K | 447.55
334.34 K | 462.26
335.18 K | 468.47
336.2 K | 480.83
337.33 K | 494.73
338.3 K | 506.41
339.24 K | 518.13
340.43 K | 533.53
341.35 K | 545.17
342.25 K | 558.82
342.53 K | 561.23
344.38 K | 589.61
345.78 K | 613.34
346.77 K | 629.58
347.88 K | 646.33
348.77 K | 660.14
349.98 K | 679.92
350.86 K | 695.77
352.84 K | 728.61
354.89 K | 762.84
356.87 K | 799.73
358.89 K | 838.22
360.78 K | 874.39
362.63 K | 916.57
364.64 K | 957.2
366.88 K | 1003.7
368.89 K | 1047.8
370.88 K | 1093
372.9 K | 1138.9
